Assay results as given in ChEMBL document CHEMBL4373645, “Recent development of leucyl-tRNA synthetase inhibitors as antimicrobial agents” (Medchemcomm, 2019).
Values after ≈ are worked out from the molar mass of the structure shown.

Legend:
[1] = Inhibition of human LeuRS after 10 mins in presence of [3H]leucine by scintillation counting method
[2] = Selectivity index, ratio of IC50 for human cytoplasmic LeuRS to IC50 for Trypanosoma brucei LeuRS
[3] = Inhibition of Trypanosoma brucei LeuRS preincubated for 20 mins followed by ATP addition measured after 15 mins in presence of [14C]leucine by scintillation counting method
[4] = tested on: Mycobacterium tuberculosis; test: Antitubercular activity against Mycobacterium tuberculosis H37Rv by time-kill assay; format: functional
Streptococcus pneumoniae = test: Antibacterial activity against Streptococcus pneumoniae assessed as the reduction in bacterial growth incubated for 24 hrs by dilution antimicrobial susceptibility test; format: functional
Trypanosoma brucei = test: Inhibition of Trypanosoma brucei LeuRS assessed as residual activity at 100 uM incubated for 5 mins in presence of [14C]leucine by scintillation counting method relative to control
[5] = Inhibition of Trypanosoma brucei LeuRS presence of [14C]leucine by scintillation counting method
Leucine--tRNA ligase = Leucine--tRNA ligase (Escherichia coli (strain K12), UniProt P07813); test: Binding affinity to Escherichia coli LeuRS
Sequence of Leucine--tRNA ligase (P07813 whole entry): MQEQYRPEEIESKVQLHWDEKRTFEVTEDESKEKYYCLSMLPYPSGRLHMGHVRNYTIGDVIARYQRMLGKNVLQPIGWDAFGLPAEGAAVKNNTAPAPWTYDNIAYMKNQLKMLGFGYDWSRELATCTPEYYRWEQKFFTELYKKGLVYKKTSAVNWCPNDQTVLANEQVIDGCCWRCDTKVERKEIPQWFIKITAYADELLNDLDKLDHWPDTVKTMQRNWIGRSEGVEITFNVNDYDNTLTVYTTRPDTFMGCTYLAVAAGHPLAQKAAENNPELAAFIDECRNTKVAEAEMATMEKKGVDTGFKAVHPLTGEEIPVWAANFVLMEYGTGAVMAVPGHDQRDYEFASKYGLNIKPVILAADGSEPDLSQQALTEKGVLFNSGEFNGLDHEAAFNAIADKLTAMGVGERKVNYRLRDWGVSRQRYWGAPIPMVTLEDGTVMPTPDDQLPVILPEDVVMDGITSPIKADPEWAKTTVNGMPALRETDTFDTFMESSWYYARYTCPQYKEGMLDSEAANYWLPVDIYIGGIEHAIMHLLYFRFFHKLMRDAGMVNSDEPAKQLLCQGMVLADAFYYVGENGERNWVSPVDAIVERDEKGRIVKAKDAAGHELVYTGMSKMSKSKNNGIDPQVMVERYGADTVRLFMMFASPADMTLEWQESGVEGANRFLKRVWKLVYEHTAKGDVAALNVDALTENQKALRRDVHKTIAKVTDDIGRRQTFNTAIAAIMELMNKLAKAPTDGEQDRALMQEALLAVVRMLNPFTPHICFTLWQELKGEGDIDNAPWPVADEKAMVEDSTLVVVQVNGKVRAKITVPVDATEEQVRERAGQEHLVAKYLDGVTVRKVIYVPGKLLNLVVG

CC(C)C[C@H](N)C(=O)NS(=O)(=O)c1cccc(NC(=S)NC(=O)COc2ccc(Br)cc2Cl)c1
IC50 [1]: 4.9 µM | Ratio IC50 [2]: 4.5 to 7.3 | IC50 [3]: 1.1 µM

COc1cccc(C(=O)NC(=S)Nc2cccc(S(=O)(=O)NC(=O)[C@@H](N)CC(C)C)c2)c1
IC50 [1]: 40 µM | Ratio IC50 [2]: 4.5 to 7.3 | IC50 [3]: 6.7 µM

COc1ccc(C(=O)NC(=S)Nc2cccc(S(=O)(=O)NC(=O)[C@@H](N)CC(C)C)c2)cc1
IC50 [1]: 33.9 µM | Ratio IC50 [2]: 4.5 to 7.3 | IC50 [3]: 5.6 µM

OB1OCc2ccccc21 [BENZOXABOROLE]
MIC [4]: 7.5 µg/mL (≈ 56 µM)

NCC1OB(O)c2ccccc21 (stereo not drawn)
MIC [4]: 1.8 µg/mL (≈ 11 µM)

NS(=O)(=O)c1ccc(NC(=S)NC(=O)COc2ccc(Br)cc2Cl)cc1
IC50 [3]: 174 µM

CC(C)C[C@H](N)C(=O)NS(=O)(=O)c1cccc(NC(=S)NC(=O)c2ccccc2)c1
IC50 [1]: 55.5 µM | Ratio IC50 [2]: 4.5 to 7.3 | IC50 [3]: 7.6 µM

OB1OCc2ccc(C(O)c3ccccc3)cc21 (stereo not drawn)
MIC (Streptococcus pneumoniae): 5 µg/mL (≈ 20.8 µM)

O=C(COc1ccc(Br)cc1Cl)NC(=S)Nc1cccc(S(=O)(=O)NC(=O)[C@H](Cc2ccccc2)NC(=O)OCc2ccccc2)c1
IC50 [3]: 13.7 µM

O=c1nc(Nc2cc(Cl)ccc2O)cn[nH]1
Activity (Trypanosoma brucei): 18% | IC50 [5]: 7.2 µM

CC(C)C[C@H](NC(=O)OCc1ccccc1)C(=O)NS(=O)(=O)c1cccc(NC(=S)NC(=O)COc2ccc(Br)cc2Cl)c1
IC50 [3]: 16.7 µM

Cc1n[nH]c(=O)nc1Nc1cc(Cl)ccc1O
Activity (Trypanosoma brucei): 2.3% | IC50 [5]: 7.6 µM

Cc1cc(-c2cccc(S(=O)(=O)CC(=O)[C@@H](N)CC(C)C)c2)ncn1
Kd (Leucine--tRNA ligase): 0.0014 µM
